# Structures can show the parent of a compound that is named as a salt.
# Assays:
# [1] = tested on: T. cruzi Y strain intracellular amastigotes; experiment: Activity against T. cruzi Y strain intracellular amastigotes (HG39 cell-line, parasite load); format: cell-based; conditions: Trypanosoma cruzi, read-out: Parassite Load Reduction (%)
# Method: T. cruzi epimastigotes (Y strain) were obtained by axenic cultivation in the LIT medium, supplemented with 10% FBS (Cultilab, São Paulo, Brazil). Cultures were maintained at […] for 4–5 days until they reached the log growth phase. New cultures were made every 4 days from the initial inoculum of 2 × 10^6 parasites/mL. T. cruzi trypomastigotes (Y strain) were maintained in culture by the infection of LLC-MK2 (ATTC-CCL7) epithelial cells. This cell line was cultured in […] tissue culture bottles (TPP) in RPMI 1640 medium (Gibco), (Thermo Fischer Scientific, Carlsbad, CA, USA) supplemented with 10% FBS (Gibco) (Thermo Fischer Scientific, Carlsbad, CA, USA). Cultures were maintained at 37 °C under 5% CO2 atmosphere, and RPMI 1640 medium and SFB were exchanged every 48 h. After confluence, the cultures were treated with 1 mL of a mixture of trypsin and versene (Sigma, São Paulo, Brazil) (0.2 and 0.002%, respectively). After 24 h, a subconfluence culture was infected with the trypomastigotes in the approximate proportion of 10:1 parasites/cell. From five to seven days post infection, the trypomastigote stage was obtained from the culture supernatant. Alternatively (Figure 2), T. cruzi strain Y was maintained as previously described.
# CYP1A2 = biological target: T1, CYP1A2 (Homo sapiens, UniProt P05177); experiment: Cytochrome P450 inhibition assay (P450-Glo) CYP1A2; format: in vitro ADME; conditions: compounds 10 μM; miltefosine 10 μM or 1 μM
# T1 construct: purchased Corning Inc; host or cells: baculovirus-infected insect cells
# T1 sequence (P05177 2-516 limits assumed): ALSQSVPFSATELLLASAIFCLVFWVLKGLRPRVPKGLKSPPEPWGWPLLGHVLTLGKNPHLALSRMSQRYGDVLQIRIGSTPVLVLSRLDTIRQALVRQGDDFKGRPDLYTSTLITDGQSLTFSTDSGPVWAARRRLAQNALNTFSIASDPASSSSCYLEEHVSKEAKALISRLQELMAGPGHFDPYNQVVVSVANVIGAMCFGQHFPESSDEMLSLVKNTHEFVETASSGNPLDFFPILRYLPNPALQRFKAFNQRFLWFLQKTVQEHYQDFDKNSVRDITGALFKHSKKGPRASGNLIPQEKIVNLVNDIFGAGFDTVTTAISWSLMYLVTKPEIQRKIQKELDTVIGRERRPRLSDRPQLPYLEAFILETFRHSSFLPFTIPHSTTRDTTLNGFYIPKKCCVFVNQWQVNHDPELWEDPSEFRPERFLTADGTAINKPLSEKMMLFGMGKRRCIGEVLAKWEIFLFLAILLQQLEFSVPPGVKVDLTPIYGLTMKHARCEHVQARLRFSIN
# Text: Cytochrome (CYP) P450 inhibition assay: These assays made use of microsomal preparations of CYP450 (1A2, 2C9, 2C19, 2D6 and 3A4) from baculovirus-infected insect cells (Corning Inc., Corning, NY, USA) and cytochrome c reductase (and cytochrome b5 for CYP450 3A4). For detection of CYP450 activity, the luminescence-based P450-Glo (Promega Corp., Madison, WI, USA) assay system was used that contained a luminogenic CYP450 substrate, lyophilized luciferin detection reagent and reconstitution buffer. The substrates were luciferin derivatives of CYP450-specific substrates that produce (4S)-4,5-dihydro-2-(6-hydroxybenzothiazolyl)-4-thiazolecarboxylic acid (D-luciferin) after cleavage by CYP450 (CYP450 3A4, luciferin-IPA; CYP450 2C19, luciferin-H EGE; CYP450 2C9, luciferin-H; CYP450 2D6, luciferin-ME EGE; CYP450 1A2, luciferin-1A2). CYP450 reactions were initiated by addition of the NADPH regeneration system to the enzyme–substrate mixture with the luciferin detection reagent stopping the reaction and the D-luciferin being converted to oxyluciferin under the production of light being proportional to the CYP450 activity. The CYP450 assays were performed using the Tecan Fluent liquid-handling automation platform (Tecan Group Ltd., Mannedorf, Switzerland) in the 384-well assay format. Compounds were added into an empty 384-well plate (100 nL/well in 1% v/v DMSO) using the Echo 550 Liquid Handler followed by the addition of 5 μL/well of the CYP450/substrate mixture and incubation for 30 min at 37 °C, after which the reaction was initiated by the addition of the 5 μL/well NADPH regeneration system. After a further 30-min incubation at 37 °C, the CYP450 reaction was stopped and the luciferase reaction was simultaneously initiated by addition of 10 μL/well of luciferin detection reagent, followed by an additional 30-min incubation at 37 °C. The luminescence signal was detected using an Infinite M1000 PRO plate reader (Tecan Group Ltd., Mannedorf, Switzerland). The NCs yielded 0% inhibition (1% v/v DMSO) and standard CYP450 specific inhibitors were used as positive controls, yielding 100% inhibition (CYP450 1A2, alpha-naphthoflavone; CYP450 2C9, sulfaphenazole; CYP450 2C19, troglitazone; CYP450 2D6, quinidine; CYP450 3A4, ketoconazole).
# Data analysis: The screening data were obtained in triplicate and analysed using ActivityBase (IDBS, Guildford, UK), and outlier elimination in the control wells was performed using the 3-sigma method. Unless stated, dose–response experiments were performed in the 11-point format with the IC50 value, Hill slope, minimum signal and maximum signal for each dose–response curve obtained using a four-parameter logistic fit in the XE module of ActivityBase (IDBS).
# [2] = tested on: L. donovani strain BPK190 amastigotes; experiment: Activity against L. donovani intramacrophage amastigotes (bone marrow-derived macrophages, qPCR); format: cell-based, Leishmania donovani; conditions: Leishmania donovani, Macrophage, infected bone marrow-derived macrophages, 48 h, read-out: Parassite Load Reduction (%)
# Method: L. donovani strain BPK 190 [55] was cultivated at 25 °C in modified Medium199 (Sigma-Aldrich, with 20% heat-inactivated FCS, 40 mM HEPES pH 7.4, 0.2% NaHCO3, 100 μM adenin, 1.2 μg/mL 6-biopterin and 10 μg/mL haem, with 1 × Pen/Strep/l-glutamine (Sigma, Saint Louis, MI, USA), pH 7.0).
# Activity against L. donovani strain BPK190 was tested in vitro using bone marrow-derived macrophages as host cells. Infection was established for 24 h prior to the addition of compounds from 10 mM stocks in DMSO. Parasite load was determined 48 h later by quantifying Leishmania actin DNA relative to mouse actin DNA using real time qPCR as described.
# [3] = Cytotoxicity against THP-1 macrophages (MTT); format: cell-based; conditions: human, PMA-differentiated THP-1 macrophages, read-out: Toxicity CC50 ± SD Or CC50 Interval Estimation
# Method: The effect of compounds selected compounds on THP-1-derived macrophages was assessed by the colorimetric MTT assay (3-(4,5-dimethylthiazol-2-yl)-2,5-diphenyl tetrazolium bromide). Briefly, 1 × 10^5 THP-1 cells/mL were differentiated into macrophages by addition of 20 ng/mL of phorbol-myristate 13-acetate (PMA, Sigma, Saint Louis, MI, USA) for 18 h, followed by replacement with fresh medium for 24 h. Cells were incubated with 100 µL of compounds ranging from 100 to 1 µM after dilution in the RPMI complete medium containing a maximum amount of 1% DMSO. After incubation for 72 h, the medium was removed and 100 µL of 0.5 mg/mL MTT solution diluted in RPMI was added. Plates were incubated for an additional 4 h to allow viable cells to convert MTT into a purple formazan product. Solubilization of formazan crystals was achieved by the addition of 2-propanol and absorbance was read at 570 nm using a Synergy 2 Multi-Mode Reader (Biotek, Winooski, VT, USA). Cytotoxicity was evaluated by the determination of the CC50 value (drug concentration that reduced the percentage of viable cells in 50%) and calculated by non-linear regression analysis using GraphPad Prism version 8.1.1 for Windows (GraphPad Software, San Diego, CA, USA).
# [4] = tested on: T. b. brucei L427 WT bloodstream form; experiment: Activity against T. brucei bloodstream forms (resazurin-based assay); format: cell-based; conditions: Trypanosoma brucei, 72 h
# Method: Trypanosoma brucei brucei Lister 427 bloodstream forms were grown at 37 °C, 5% CO2 in complete HMI-9 medium supplemented with 10% foetal calf serum (FCS) and 100 UI/mL of penicillin/streptomycin. […] The efficacy of compounds against T. brucei bloodstream forms was evaluated using a modified resazurin-based assay previously described. Mid-log bloodstream forms were added to an equal volume of serial dilutions of compounds in supplemented complete HMI-9 medium at a final cell density of 5 × 10^3/mL. Following incubation for 72 h at 37 °C 5% CO2, 20 μL of a 0.5 mM resazurin solution was added and plates were incubated for a further 4 h under the same conditions. Fluorescence was measured at 540 nm and 620 nm excitation and emission wavelength, respectively, using a Synergy 2 Multi-Mode Reader (Biotek, Winooski, VT, USA).
% inhibition ± SD at 10 μΜ CYP1A2 (CYP1A2),Structure (SMILES),inhibition of growth at 10 µM [1],inhibition of growth at 5 µM [2],CC50 at 72 h [3],IC50 ([4]; read-out: Dose Response Curves IC50 ± SD),"inhibition at 10 µM ([4]; 10 μM, read-out: Single Dose Assay 10μM Mean Inhibitory Activity (%) ± SD)"
,"CC1CS(=O)(=O)CCN1/N=C/c1ccc([N+](=O)[O-])o1 (centres unmarked) [Nifurtimox, reference compound]",81.2%,,,,
–2.91%,"C[N+](C)(C)CCOP(=O)([O-])OCCCCCCCCCCCn1cc(CCCCCCCCC(=O)OCc2ccccc2)nn1 [Compound 30, 11-(4-(9-(benzyloxy)-9-oxononyl)-1H-1,2,3-triazol-1-yl)undecyl (2-(trimethyl ammonio)ethyl) phosphate inner salt]",69.7%,0%,> 100 µM,,
,"N=C(N)c1ccc(OCCCCCOc2ccc(C(=N)N)cc2)cc1 [Pentamidine, reference compound]",,,,0.00155 ± 0.00024 µM,
3.18%,"C[N+](C)(C)CCOP(=O)([O-])OCCCCCCCCCCCn1cc(CCCCCCCCN)nn1 [Compound 36, 11-(4-(8-aminooctyl)-1H-1,2,3-triazol-1-yl)undecyl (2-(trimethylammonio)ethyl) phosphate inner salt]",0%,20.3%,> 100 µM,,30 ± 7%

# — publication PMC8305768, “Design, Synthesis and Antiparasitic Evaluation of Click Phospholipids” (Molecules, 2021)
